{"source": "paper PMC9963013", "about": "(Proceedings of the National Academy of Sciences of the …, 2023)", "target": "AtSFH5-Sec14 (Arabidopsis thaliana, UniProt Q8GXC6)", "sequence (Q8GXC6 76-365)": "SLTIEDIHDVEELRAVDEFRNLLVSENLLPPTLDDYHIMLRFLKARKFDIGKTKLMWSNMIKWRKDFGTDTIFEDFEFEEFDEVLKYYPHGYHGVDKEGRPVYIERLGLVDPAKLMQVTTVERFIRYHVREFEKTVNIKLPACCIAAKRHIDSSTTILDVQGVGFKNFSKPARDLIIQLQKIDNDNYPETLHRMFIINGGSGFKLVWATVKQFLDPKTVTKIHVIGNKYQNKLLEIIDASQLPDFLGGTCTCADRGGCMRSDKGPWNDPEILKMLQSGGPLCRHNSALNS", "assay": "X-ray crystal structure, […] Å", "assay_type": "binding", "conditions": "central cavity; acyl chains switched relative to L-α-PA complex"}
{"smiles": "CCCCCCCCCCCCCCCC(=O)OC[C@H](COP(=O)(O)O)OC(=O)CCCCCCCCCCCCCCC", "note": "[DPPA, 1,2-dipalmitoyl-sn-glycero-3-phosphate]", "values": [{"measurement": "X-ray crystal structure, 2.1 Å", "value": "7Y10 for AtSFH5-Sec14 in complex with DPPA"}]}
